Data on 21 molecules can be found in patent US10118902B2 (Sanford Burnham Prebys Medical Discovery Institute, priority 2014, dated 2018).

For this experiment, the target named is neurotensin receptor 1 (NTR1) (Homo sapiens (Human), UniProt P30989). Briefly: NTR1 dose response, high-content imaging beta-arrestin-GFP assay in NTR1-U2OS cells. Format: cell-based. Particulars: read-out: EC50.
neurotensin receptor 1 (NTR1), sequence (P30989 whole entry, species assumed): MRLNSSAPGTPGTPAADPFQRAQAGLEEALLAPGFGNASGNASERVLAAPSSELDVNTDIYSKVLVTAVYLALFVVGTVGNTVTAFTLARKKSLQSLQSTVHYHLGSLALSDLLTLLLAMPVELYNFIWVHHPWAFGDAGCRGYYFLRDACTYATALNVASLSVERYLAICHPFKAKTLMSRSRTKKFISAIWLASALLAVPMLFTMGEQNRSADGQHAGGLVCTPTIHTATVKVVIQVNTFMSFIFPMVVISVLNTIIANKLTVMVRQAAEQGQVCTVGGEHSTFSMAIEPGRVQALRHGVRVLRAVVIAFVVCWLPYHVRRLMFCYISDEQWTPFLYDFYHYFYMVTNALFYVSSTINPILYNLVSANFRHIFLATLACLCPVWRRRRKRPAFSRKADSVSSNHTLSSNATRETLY
Usually EC50 stands for the concentration at which the effect is half-maximal. On to `COc1nccnc1C1CCN(c2nc(C3(C)CC3)nc3c(F)cc(N(C)CCO)cc23)CC1` [Example 204, 2-{[8-Fluoro-4-[4-(3-methoxy-pyrazin-2-yl)-piperidin-1-yl]-2-(1-methyl-cyclopropyl)-quinazolin-6-yl]-methyl-amino}-ethanol], for which the EC50 lay in the range of 500 to 2000 nM.

Regarding `COc1nccnc1C1CCN(c2nc(C3(C)CC3)nc3ccc(N(C)CCO)cc23)CC1` [Example 205, 2-{[4-[4-(3-Methoxy-pyrazin-2-yl)-piperidin-1-yl]-2-(1-methyl-cyclopropyl)-quinazolin-6-yl]-methyl-amino}-ethanol], the concentration giving a half-maximal response (EC50) is 500 to 2000 nM.

As to `COc1cccnc1C1CCN(c2nc(C3(F)CC3)nc3ccc(N(C)CCO)cc23)CC1` [Example 206, 2-{[2-(1-Fluoro-cyclopropyl)-4-(3-methoxy-3′,4′,5′,6′-tetrahydro-2′H-[2,4′]bipyridinyl-1′-yl)-quinazolin-6-yl]-methyl-amino}-ethanol], the EC50 was in the range of 500 to 2000 nM.

Turning to `COc1ncccc1C1CCN(c2nc(C3(F)CC3)nc3ccc(N(C)CCO)cc23)CC1` [Example 207, 2-{[2-(1-Fluoro-cyclopropyl)-4-(2-methoxy-3′,4′,5′,6′-tetrahydro-2′H-[3,4′]bipyridinyl-1′-yl)-quinazolin-6-yl]-methyl-amino}-ethanol], the EC50 was 500 to 2000 nM.

For the molecule `COc1nccnc1C1CCN(c2nc(C3(F)CC3)nc3ccc(N(C)CCO)cc23)CC1` [Example 208, 2-({2-(1-Fluoro-cyclopropyl)-4-[4-(3-methoxy-pyrazin-2-yl)-piperidin-1-yl]-quinazolin-6-yl}-methyl-amino)-ethanol], the EC50 fell in the range of 500 to 2000 nM.

Take `COc1cccnc1N1CCN(c2nc(C3(F)CC3)nc3ccc(N(C)CCO)cc23)CC1` [Example 209, 2-({2-(1-Fluoro-cyclopropyl)-4-[4-(3-methoxy-pyridin-2-yl)-piperazin-1-yl]-quinazolin-6-yl}-methyl-amino)-ethanol]: the EC50 fell in the range of 2000 to 10000 nM.

For `COc1ccncc1C1CCN(c2nc(C3(F)CC3)nc3ccc(N(C)CCO)cc23)CC1` [Example 210, 2-{[2-(1-Fluoro-cyclopropyl)-4-(4-methoxy-3′,4′,5′,6′-tetrahydro-2′H-[3,4′]bipyridinyl-1′-yl)-quinazolin-6-yl]-methyl-amino}-ethanol], the concentration giving a half-maximal response (EC50) was in the range of 2000 to 10000 nM.

For the molecule `COc1cncnc1C1CCN(c2nc(C3(F)CC3)nc3ccc(N(C)CCO)cc23)CC1` [Example 211, 2-({2-(1-Fluoro-cyclopropyl)-4-[4-(5-methoxy-pyrimidin-4-yl)-piperidin-1-yl]-quinazolin-6-yl}-methyl-amino)-ethanol], the concentration giving a half-maximal response (EC50) is greater than 10000 nM.

As for `COc1cnccc1C1CCN(c2nc(C3(F)CC3)nc3ccc(N(C)CCO)cc23)CC1` [Example 212, 2-{[2-(1-Fluoro-cyclopropyl)-4-(3′-methoxy-3,4,5,6-tetrahydro-2H-[4,4′]bipyridinyl-1-yl)-quinazolin-6-yl]-methyl-amino}-ethanol], the EC50 is greater than 10000 nM.

Regarding `COc1nccnc1C1CCN(c2nc(C3(F)CC3)nc3c(F)cc(N(C)CCO)cc23)CC1` [Example 213, 2-({8-Fluoro-2-(1-fluoro-cyclopropyl)-4-[4-(3-methoxy-pyrazin-2-yl)-piperidin-1-yl]-quinazolin-6-yl}-methyl-amino)-ethanol], the EC50 was 500 to 2000 nM.

As for `COc1ncccc1C1CCN(c2nc(C3(F)CC3)nc3c(F)cc(N(C)CCO)cc23)CC1` [Example 214, 2-{[8-Fluoro-2-(1-fluoro-cyclopropyl)-4-(2-methoxy-3′,4′,5′,6′-tetrahydro-2′H-[3,4′]bipyridinyl-1′-yl)-quinazolin-6-yl]-methyl-amino}-ethanol], the EC50 lay in the range of 500 to 2000 nM.

`COc1cccnc1N1CCN(c2nc(C3(F)CC3)nc3c(F)cc(N(C)CCO)cc23)CC1` [Example 215, 2-({8-Fluoro-2-(1-fluoro-cyclopropyl)-4-[4-(3-methoxy-pyridin-2-yl)-piperazin-1-yl]-quinazolin-6-yl}-methyl-amino)-ethanol]: the EC50 fell in the range of 500 to 2000 nM.

Consider `COc1cccnc1C1CCN(c2nc(C3(F)CC3)nc3c(F)cc(N(C)CCO)cc23)CC1` [Example 216, 2-{[8-Fluoro-2-(1-fluoro-cyclopropyl)-4-(3-methoxy-3′,4′,5′,6′-tetrahydro-2′H-[2,4′]bipyridinyl-1′-yl)-quinazolin-6-yl]-methyl-amino}-ethanol], for which the 50% effective concentration (EC50) was in the range of 2000 to 10000 nM.

Regarding `COc1cncnc1C1CCN(c2nc(C3(F)CC3)nc3c(F)cc(N(C)CCO)cc23)CC1` [Example 217, 2-({8-Fluoro-2-(1-fluoro-cyclopropyl)-4-[4-(5-methoxy-pyrimidin-4-yl)-piperidin-1-yl]-quinazolin-6-yl}-methyl-amino)-ethanol], the EC50 was greater than 10000 nM.

`COc1cc(I)ccc1C1CCN(c2nc(C3(F)CC3)nc3ccc(N(C)CCO)cc23)CC1` [Example 218]: the half-maximal effective concentration (EC50) was greater than 10000 nM.

As for `COc1nccnc1C1CCN(c2nc(C3(CF)CC3)nc3ccc(N(C)CCO)cc23)CC1` [Example 219, 2-({2-(1-Fluoromethyl-cyclopropyl)-4-[4-(3-methoxy-pyrazin-2-yl)-piperidin-1-yl]-quinazolin-6-yl}-methyl-amino)-ethanol], the EC50 was 500 to 2000 nM.

For `COc1nccnc1C1CCN(c2nc(C3(O)CCC3)nc3ccc(N(C)CCO)cc23)CC1` [Example 221, 1-(6-((2-hydroxyethyl)(methyl)amino)-4-(4-(3-methoxypyrazin-2-yl)piperidin-1-yl)quinazolin-2-yl)cyclobutanol], the 50% effective concentration (EC50) is greater than 10000 nM.

With `CN(CCOCCF)c1ccc2nc(C3(F)CC3)nc(N3CCC(c4ccccc4OCCF)CC3)c2c1` [Example 222, (2-(1-Fluoro-cyclopropyl)-4-{4-[2-(2-fluoro-ethoxy)-phenyl]-piperidin-1-yl}-quinazolin-6-yl)-[2-(2-fluoro-ethoxy)-ethyl]-methyl-amine], the EC50 fell in the range of 2000 to 10000 nM.

In the case of `COc1ccccc1C1CCN(c2nc(C3(F)CC3)nc3ccc(N(C)CCOCCF)cc23)CC1` [Example 223, {2-(1-Fluoro-cyclopropyl)-4-[4-(2-methoxy-phenyl)-piperidin-1-yl]-quinazolin-6-yl}-[2-(2-fluoro-ethoxy)-ethyl]-methyl-amine], the EC50 was in the range of 500 to 2000 nM.

On to `CN(CCO[Si](C)(C)C(C)(C)C)c1ccc2nc(C3(F)CC3)nc(N3CCC(c4ccccc4O)CC3)c2c1` [Example 224, 2-{1-[6-{[2-(tert-Butyl-dimethyl-silanyloxy)-ethyl]-methyl-amino}-2-(1-fluoro-cyclopropyl)-quinazolin-4-yl]-piperidin-4-yl}-phenol], for which the half-maximal effective concentration (EC50) was 2000 to 10000 nM.

`CN(CCO)c1ccc2nc(C3(F)CC3)nc(N3CCC(c4ccccc4OCCF)CC3)c2c1` [Example 225, 2-[(2-(1-Fluoro-cyclopropyl)-4-{4-[2-(2-fluoro-ethoxy)-phenyl]-piperidin-1-yl}-quinazolin-6-yl)-methyl-amino]-ethanol]: the EC50 is 500 to 2000 nM.
